# Laboratory results from US7598245B2 (Vertex Pharmaceuticals Incorporated, priority 2003, dated 2009).
# Several values for one entry are separate records, joined by “and”; a condition that tells them apart may be missing. Equal values may be shown once.
# What was measured:
# GSK-3β (AA 1-420) = GSK-3β (AA 1-420) (Homo sapiens, UniProt P49841); assay: Inhibition of GSK-3, coupled enzyme system; assay type: biochemical; details: 20 μM ATP, 30° C.
# Protocol: Compounds are screened for their ability to inhibit GSK-3β (AA 1-420) activity using a standard coupled enzyme system [Fox et al. Protein Sci. 1998, 7, 2249]. Reactions are carried out in a solution containing 100 mM HEPES (pH 7.5), 10 mM MgCl2, 25 mM NaCl, 300 μM NADH, 1 mM DTT and 1.5% DMSO. Final substrate concentrations in the assay are 20 μM ATP (Sigma Chemicals, St Louis, Mo.) and 300 μM peptide (American Peptide, Sunnyvale, Calif.). Reactions are carried out at 30° C. and 20 nM GSK-3β. Final concentrations of the components of the coupled enzyme system are 2.5 mM phosphoenolpyruvate, 300 μM NADH, 30 μg/ml pyruvate kinase and 10 μg/ml lactate dehydrogenase.
# An assay stock buffer solution is prepared containing all of the reagents listed above with the exception of ATP and the test compound of interest. The assay stock buffer solution (175 μl) is incubated in a 96 well plate with 5 μl of the test compound of interest at final concentrations spanning 0.002 μM to 30 μM at 30° C. for 10 min. Typically, a 12 point titration is conducted by preparing serial dilutions (from 10 mM compound stocks) with DMSO of the test compounds in daughter plates. The reaction is initiated by the addition of 20 μl of ATP (final concentration 20 μM). Rates of reaction are obtained using a Molecular Devices Spectramax plate reader (Sunnyvale, Calif.) over 10 min at 30° C. The Ki values are determined from the rate data as a function of inhibitor concentration.
# FLT-3 = molecular target: T1, FLT-3 (Homo sapiens, UniProt P36888); assay: Inhibition of FLT-3, radiometric filter-binding assay; assay type: biochemical; details: 90 μM ATP, pE4Y substrate; read-out: Ki values (FLT-3)
# T1 construct: 0.02% BSA and 3 nM FLT-3
# T1 sequence (P36888 27-993): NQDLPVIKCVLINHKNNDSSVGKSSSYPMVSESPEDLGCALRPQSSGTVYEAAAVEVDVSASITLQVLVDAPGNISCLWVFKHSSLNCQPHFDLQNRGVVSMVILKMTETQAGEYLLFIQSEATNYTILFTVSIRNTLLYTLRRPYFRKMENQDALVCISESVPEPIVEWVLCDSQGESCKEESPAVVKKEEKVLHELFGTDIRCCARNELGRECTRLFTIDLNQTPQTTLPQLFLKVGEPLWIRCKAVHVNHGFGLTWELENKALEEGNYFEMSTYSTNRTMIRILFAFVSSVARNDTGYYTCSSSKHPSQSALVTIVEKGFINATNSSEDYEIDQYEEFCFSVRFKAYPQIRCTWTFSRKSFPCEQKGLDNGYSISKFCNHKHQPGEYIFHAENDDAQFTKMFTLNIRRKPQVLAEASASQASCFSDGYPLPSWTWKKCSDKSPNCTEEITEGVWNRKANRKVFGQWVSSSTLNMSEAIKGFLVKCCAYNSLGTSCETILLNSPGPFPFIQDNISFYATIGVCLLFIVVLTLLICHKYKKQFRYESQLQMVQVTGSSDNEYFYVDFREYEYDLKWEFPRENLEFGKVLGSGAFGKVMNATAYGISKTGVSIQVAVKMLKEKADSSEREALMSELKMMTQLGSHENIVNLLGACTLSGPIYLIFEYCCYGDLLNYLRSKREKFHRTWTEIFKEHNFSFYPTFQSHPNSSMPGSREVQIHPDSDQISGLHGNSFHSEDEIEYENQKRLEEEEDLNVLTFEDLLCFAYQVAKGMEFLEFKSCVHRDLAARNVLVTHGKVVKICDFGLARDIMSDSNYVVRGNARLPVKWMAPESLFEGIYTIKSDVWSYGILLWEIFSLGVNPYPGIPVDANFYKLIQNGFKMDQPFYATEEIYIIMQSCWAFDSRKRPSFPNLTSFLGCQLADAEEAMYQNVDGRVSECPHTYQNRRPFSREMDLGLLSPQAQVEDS
# Protocol: Compounds were screened for their ability to inhibit FLT-3 activity using a radiometric filter-binding assay. This assay monitors the ^33P incorporation into a substrate poly(Glu, Tyr) 4:1 (pE4Y). Reactions were carried out in a solution containing 100 mM HEPES (pH 7.5), 10 mM MgCl2, 25 mM NaCl, 1 mM DTT, 0.01% BSA and 2.5% DMSO. Final substrate concentrations in the assay were 90 μM ATP and 0.5 mg/mL pE4Y (both from Sigma Chemicals, St Louis, Mo.). The final concentration of compounds is generally between 0.01 and 5 μM. Typically, a 12-point titration was conducted by preparing serial dilutions from 10 mM DMSO stock of test compound. Reactions were carried out at room temperature.
# Two assay solutions were prepared. Solution 1 contains 100 mM HEPES (pH 7.5), 10 mM MgCl2, 25 mM NaCl, 1 mg/ml pE4Y and 180 μM ATP (containing 0.3 μCi of [γ-^33P]ATP for each reaction). Solution 2 contains 100 mM HEPES (pH 7.5), 10 mM MgCl2, 25 mM NaCl, 2 mM DTT, 0.02% BSA and 3 nM FLT-3. The assay was run on a 96 well plate by mixing 50 μL each of Solution1 and 2.5 mL of the test compounds. The reaction was initiated with Solution2. After incubation for 20 minutes at room temperature, the reaction was stopped with 50 μL of 20% TCA containing 0.4 mM of ATP. All of the reaction volume was then transferred to a filter plate and washed with 5% TCA by a Harvester9600 from TOMTEC (Hamden, Conn.). The amount of ^33P incorporation into pE4y was analyzed by a Packard TopCount Microplate Scintillation Counter (Meriden, Conn.). The data was fitted using Prism software to get an IC50 or Ki.
# Chain of GSK-3β (AA 1-420) (P49841 whole entry, the tested form may be a part): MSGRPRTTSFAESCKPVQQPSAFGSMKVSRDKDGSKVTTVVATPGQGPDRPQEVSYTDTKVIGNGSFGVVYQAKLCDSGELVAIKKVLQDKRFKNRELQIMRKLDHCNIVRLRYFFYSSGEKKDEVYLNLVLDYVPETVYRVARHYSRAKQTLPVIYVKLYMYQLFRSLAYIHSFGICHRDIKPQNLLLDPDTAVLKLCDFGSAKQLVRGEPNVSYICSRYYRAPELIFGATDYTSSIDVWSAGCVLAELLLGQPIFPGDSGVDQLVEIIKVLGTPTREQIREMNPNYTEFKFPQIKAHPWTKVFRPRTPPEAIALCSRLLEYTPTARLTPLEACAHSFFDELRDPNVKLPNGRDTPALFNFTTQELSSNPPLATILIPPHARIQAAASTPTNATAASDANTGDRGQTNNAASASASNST
Structure (SMILES),Ki (GSK-3β (AA 1-420)) [nM],Ki (FLT-3)
c1ccc(-n2cnc(Nc3ccc(N4CCOCC4)nc3)n2)cc1 [Compound I-134],> 1000,30 to 200 nM and > 200 nM
CN1CCN(c2ccc(Nc3ncn(-c4ccccc4)n3)cn2)CC1 [Compound I-135],> 1000,30 to 200 nM
